Our source for the logD and logP values is the SangsterLogP compilation.

Structures are written as SMILES.

The first series in a line: method code SF, from DOI: 10.1248/yakushi1947.96.10_1169, PMID: 1033993. The settings on record: pH 0.7.
One may read the logD as lipophilicity at a set pH, counting ionised and neutral species. Low values mean a more hydrophilic compound, high ones a more lipophilic compound. `C=CCC1(CC)C(=O)NC(=O)N(C)C1=O` (configuration not stated) yielded a logD of 1.35.

`CCC1(C2CCCCC2)C(=O)NC(=O)N(C)C1=O` (configuration not stated) yielded a logD of 2.

Regarding `CCC1C(=O)NC(=O)NC1=O`, the logD was -0.35.

The nature of the next series: method code SF-RC, from DOI: 10.1021/es60170a013.
Conditions: not given
By logP is commonly meant a log measure of how a compound divides between an organic and an aqueous phase. Low readings indicate lower lipophilicity, high ones higher lipophilicity. The compound `Clc1cccc(Cl)c1` had a logP of 3.44.

Regarding `COc1ccc(Cl)cc1`, the logP is 2.78.

`O=NN(c1ccccc1)c1ccccc1` came in with a logP of 3.13.

Experiment in the next series: not given
Conditions: not given
`COc1ccc(S(N)(=O)=O)cc1` yielded a logP of 0.48.

The compound `C1=C(c2ccccc2)CCN(c2ccccc2)C1` displayed a logP of 2.71.

`OCc1c(F)cccc1F`: the logP was found to be 1.12.

The nature of the next series: method code SF-AS, from DOI: 10.1021/bi00730a008, PMID: 4688860.
Conditions: not given
Compound `O=CNc1cccc(Cl)c1` yielded a logP of 1.9.

With `O=CNc1ccc(Cl)cc1`, the logP was determined as 2.04.

Take `CC(=O)c1ccc(NC=O)cc1`: the logP was found to be 0.94.

A further series can be described thus: method code SF-AS, from DOI: 10.1021/j150653a049.
Conditions: not given
`Cc1ccc(O)c(CO)c1` yielded a logP of 0.97.

`OCc1cc(Br)ccc1O` returned a logP of 1.72.

For the compound `OCc1cccc(O)c1`, the logP was determined as 0.5.

Experiment in another series: not given
Conditions: not given
The source holds these as a separate data set.
`CCCC(C)C(=O)O` (configuration not stated) had a logP of 1.8.

In the case of `CCCC(CC)C(=O)O` (configuration not stated), the logP was determined as 2.23.

Consider `CCCCC(CCC)C(=O)O` (configuration not stated), for which the logP amounted to 3.01.

A further series in a line: method code SF-AS, from DOI: 10.1248/cpb.32.2380.
Conditions: not given
In turn, `NS(=O)(=O)c1cc2c(cc1Cl)N=CNS2(=O)=O` came in with a logP of -0.1.

Turning to `CN1C(CSCC(F)(F)F)Nc2cc(Cl)c(S(N)(=O)=O)cc2S1(=O)=O` (configuration not stated), the logP was found to be 1.9.

On to `NS(=O)(=O)c1cc2c(cc1C(F)(F)F)NCNS2(=O)=O`, for which the logP worked out at 0.36.

Experiment in a further series: not given
Conditions: not given
This is another data set of the same source.
`CC(C)c1cc(C(C)C)c(C(=O)O)c(C(C)C)c1` yielded a logP of 4.05.

In turn, `COc1cccc(OC)c1C(=O)O` yielded a logP of 0.95.

The compound `Nc1c(Cl)c(F)nc(OCC(=O)O)c1Cl` had a logP of 1.74.

A further series can be described thus: method code SF-AS, from DOI: 10.1007/s001289900104, PMID: 8661852.
Conditions: not given
On to `O=[N+]([O-])c1c(Cl)nc(-c2ncncn2)nc1Cl`, for which the logP amounted to 2.29.

In turn, `Oc1cc(O)nc(-c2ncncn2)n1` showed a logP of 1.49.

Consider `Clc1cc(-c2ncncn2)c(Cl)nn1`, for which the logP was found to be 0.84.

A further series is described as follows: method code SF-AS, from DOI: 10.1021/jm00284a014, PMID: 5544400.
Conditions: not given
Take `O=c1[nH]c2ccccc2[nH]1`: the logP was found to be 1.12.

Compound `S=c1[nH]c2ccccc2[nH]1` displayed a logP of 1.66.

`CCCN1CCCN(CCC)C1=S`: the logP came to 2.83.

Another series in a line: method code SF-GLC, from PMID: 6629728. The settings on record: pH 7.4.
`C=CC1CCC2OC2C1` (configuration not stated) gave a logD of 2.08.

In turn, `C1CC2OC2CC1C1CO1` (configuration not stated) showed a logD of 0.44.

In turn, `C1COC2CC2C1` (configuration not stated) came in with a logD of 1.26.

A further series is described as follows: method code SF-AS, from DOI: 10.1016/0045-6535(83)90122-4.
Conditions: not given
Take `O=[N+]([O-])c1cc(Cl)c(Cl)cc1Cl`: the logP amounted to 3.48.

`O=[N+]([O-])c1ccc(Cl)c(Cl)c1` yielded a logP of 3.12.

`O=[N+]([O-])c1c(Cl)c(Cl)cc(Cl)c1Cl` came in with a logP of 3.89.

The nature of another series: method code SF-AS, from DOI: 10.1111/1523-1747.ep12263302, PMID: 6470515.
Conditions: not given
Consider `Nc1cc([N+](=O)[O-])ccc1O`, for which the logP came to 1.13.

`Nc1ccc(Cl)c(N)c1` registered a logP of 0.85.

Regarding `Nc1ccc(N)cc1`, the logP is -0.3.

Experiment in a further series: not given
Conditions: not given
The source holds these as a separate data set.
Turning to `CCNc1nc(NCC)nc(SC)n1`, the logP amounted to 2.63.

Consider `Nc1cc(Cl)cc(Cl)c1`, for which the logP was 2.6.

As for `COc1cc(N)cc(OC)c1`, the logP was found to be 0.99.

Experiment in a further series: not given
Conditions: not given
The source holds these as a separate data set.
`CCNC(=O)c1cccnc1` had a logP of 0.31.

`CCCNC(=O)c1cccnc1` registered a logP of 0.66.

Regarding `NC(=O)c1cccnc1`, the logP was -0.34.

Experiment in a further series: not given
Conditions: not given
This is another data set of the same source.
Regarding `N#Cc1c(Cl)cccc1Cl`, the logP stood at 2.65.

In turn, `C1=CCCC=CCCC=CCC1` came in with a logP of 4.12.

In turn, `C1=C\CC/C=C\CC/1` yielded a logP of 3.16.

The next series in a line: from Kurihara, N.; Yamakawa, K.; Fujita, T.; Nakajima, M. (1980). Studies on BHC isomers and related compounds. XXVI. Anaerobic degradation of tetra-, penta- and hexachlorocyclohexane isomers by rat liver ….
Conditions: not given
As for `ClC1=C(Cl)C(Cl)C(Cl)C(Cl)C1Cl` (configuration not stated), the logP came out at 4.31.

Take `ClC1=CC(Cl)C(Cl)C(Cl)C1Cl` (configuration not stated): the logP came out at 3.61.

As to `ClC1C=CC(Cl)C(Cl)C1Cl` (configuration not stated), the logP was determined as 3.08.

A short description of another series: method code SF-AS, from DOI: 10.1007/bf01964075. The settings on record: pH 2.1.
`CNC(=O)[C@H](CC(C)C)NC(C)=O` had a logD of 0.14.

Turning to `CNC(=O)C(C)NC(C)=O` (racemic), the logD is -1.21.

Compound `CNC(=O)CNC(C)=O` gave a logD of -1.56.

Experiment in the next series: not given
Conditions: not given
The source holds these as a separate data set.
On to `Clc1ccc(Cl)c(Cl)c1`, for which the logP was found to be 4.03.

In the case of `O=[N+]([O-])c1c(Cl)c(Cl)c(Cl)c(Cl)c1Cl`, the logP stood at 4.64.

Compound `NC(=O)c1c(Cl)cccc1Cl` returned a logP of 1.25.
